The values below come from BindingDB's records for doi:10.1016/j.bmcl.2009.08.022 (Roche Palo Alto, 2009).

Each structure is given as a SMILES string.

This test deals with Genome polyprotein (Hepatitis C virus genotype 1b (isolate Con1), UniProt Q9WMX2). Nature of the test: Inhibition of […] con1 NS5B polymerase assessed as [3H]UTP incorporation into acid insoluble RNA product.
Chain of Genome polyprotein (Q9WMX2 2420-3010 limits assumed): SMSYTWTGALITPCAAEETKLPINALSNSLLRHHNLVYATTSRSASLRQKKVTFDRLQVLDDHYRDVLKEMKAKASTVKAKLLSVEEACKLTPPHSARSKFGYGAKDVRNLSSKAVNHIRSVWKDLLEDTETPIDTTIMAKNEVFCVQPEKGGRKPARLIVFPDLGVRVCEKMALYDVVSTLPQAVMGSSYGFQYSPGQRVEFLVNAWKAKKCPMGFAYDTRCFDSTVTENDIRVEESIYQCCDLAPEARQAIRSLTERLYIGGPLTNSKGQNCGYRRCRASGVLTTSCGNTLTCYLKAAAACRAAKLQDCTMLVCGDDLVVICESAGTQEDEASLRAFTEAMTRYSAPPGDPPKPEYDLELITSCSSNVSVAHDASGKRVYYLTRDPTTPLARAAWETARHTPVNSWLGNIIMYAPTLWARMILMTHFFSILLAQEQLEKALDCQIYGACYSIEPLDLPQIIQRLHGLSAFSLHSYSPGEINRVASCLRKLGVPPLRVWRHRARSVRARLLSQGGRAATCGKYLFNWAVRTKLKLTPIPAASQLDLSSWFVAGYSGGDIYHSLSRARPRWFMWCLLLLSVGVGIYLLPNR
Broadly, the IC50 is the concentration that gives 50% inhibition. Take `CC(C)(C)[C@H]1C(=O)C(=C2NS(=O)(=O)c3c(CCS(C)(=O)=O)cccc32)C(=O)N1Cc1ccc(F)cc1` [(S)-5-tert-Butyl-1-(4-fluoro-benzyl)-4-hydroxy-3-[7-(2-methanesulfonyl-ethyl)-1,1-dioxo-1H-1lambda*6*-benzo[d]isothiazol-3-yl]-1,5-dihydro-pyrrol-2-one]: the IC50 is 4 nM. For `Cc1cc(CN2C(=O)C(C3NS(=O)(=O)c4c(C=NS(N)(=O)=O)cccc43)C(=O)[C@@H]2C(C)(C)C)ccc1F` (stereo partly drawn) [N-({3-[(5S)-5-tert-butyl-1-[(4-fluoro-3-methylphenyl)methyl]-4-hydroxy-2-oxo-2,5-dihydro-1H-pyrrol-3-yl]-1,1-dioxo-{6},2-benzothiazol-7-yl}methyl)aminosulfonamide] the value was 3 nM. Next, `CC(C)(C)[C@H]1C(=O)C(C2NS(=O)(=O)c3c(C=NS(N)(=O)=O)cccc32)C(=O)N1Cc1ccc(F)cc1` (stereo partly drawn) [N-({3-[(5S)-5-tert-butyl-1-[(4-fluorophenyl)methyl]-4-hydroxy-2-oxo-2,5-dihydro-1H-pyrrol-3-yl]-1,1-dioxo-{6},2-benzothiazol-7-yl}methyl)aminosulfonamide]: 3 nM; `Cc1cc(CN2C(=O)C(=C3NS(=O)(=O)c4c(CN(C)S(C)(=O)=O)cccc43)C(=O)[C@@H]2C(C)(C)C)ccc1F` [N-{3-[(S)-5-tert-Butyl-1-(4-fluoro-3-methyl-benzyl)-4-hydroxy-2-oxo-2,5-dihydro-1H-pyrrol-3-yl]-1,1-dioxo-1H-1lambda*6*-benzo[d]isothiazol-7-ylmethyl}-N-methyl-methanesulfonamide]: 5 nM; `Cc1cc(CN2C(=O)C(=C3NS(=O)(=O)c4c(CNS(C)(=O)=O)cccc43)C(=O)[C@@H]2C(C)(C)C)ccc1F` [N-{3-[(S)-5-tert-Butyl-1-(4-fluoro-3-methyl-benzyl)-4-hydroxy-2-oxo-2,5-dihydro-1H-pyrrol-3-yl]-1,1-dioxo-1H-1lambda*6*-benzo[d]isothiazol-7-ylmethyl}-methanesulfonamide]: 4 nM.

With `CC(C)(C)[C@H]1C(=O)C(=C2NS(=O)(=O)c3c(NS(C)(=O)=O)cccc32)C(=O)N1Cc1ccc(F)cc1` [N-{3-[(S)-5-tert-Butyl-1-(4-fluoro-benzyl)-4-hydroxy-2-oxo-2,5-dihydro-1H-pyrrol-3-yl]-1,1-dioxo-1H-1lambda*6*-benzo[d]isothiazol-7-yl}-methanesulfonamide], the IC50 turned out to be 5 nM.
